One assay relates to influenza neuraminidases. Conditions: Colman, 1999; cited from earlier work.
For assay [1], the system named is bacterial or mammalian neuraminidases. Particulars: Colman, 1999; cited from earlier work.
For assay [2], the target named is influenza A neuraminidase (N1) (Influenza A virus, UniProt P03468). Format: biochemical.
Sequence of influenza A neuraminidase (N1) (P03468 whole entry): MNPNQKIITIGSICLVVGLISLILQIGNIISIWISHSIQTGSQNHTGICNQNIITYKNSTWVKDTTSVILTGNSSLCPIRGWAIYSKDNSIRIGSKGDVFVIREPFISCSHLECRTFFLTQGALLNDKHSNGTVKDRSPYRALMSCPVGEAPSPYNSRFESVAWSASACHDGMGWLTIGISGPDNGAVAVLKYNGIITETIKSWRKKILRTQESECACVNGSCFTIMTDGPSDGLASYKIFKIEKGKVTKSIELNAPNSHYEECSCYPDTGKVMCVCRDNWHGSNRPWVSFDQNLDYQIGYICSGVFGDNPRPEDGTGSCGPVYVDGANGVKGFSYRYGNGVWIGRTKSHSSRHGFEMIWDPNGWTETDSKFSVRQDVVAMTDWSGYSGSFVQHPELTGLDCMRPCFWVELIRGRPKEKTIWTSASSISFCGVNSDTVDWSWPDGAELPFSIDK

As to `CC(=O)N[C@H]1[C@H]([C@H](O)[C@H](O)CO)OC(C(=O)O)=C[C@@H]1N=C(N)N` [zanamivir], in the assay on influenza neuraminidases, the “potency against influenza neuraminidases” value was “very potent”. The “potency against bacterial or mammalian neuraminidases” value in assay [1] is listed as “much less potent”.
`CC(=N)N[C@H]1[C@H]([C@H](NC(C)=O)[C@@H](C)O)OC(C(=O)O)=C[C@@H]1O` [Compound 8, 5-acetamidino-7-acetamido-3,5,7,9-tetradeoxy-D-glycero-D-galacto-non-2-enonate]: the “potency as inhibitor compared with ATA” value in assay [2] is “not as potent an inhibitor as Aurintricarboxylic acid (ATA)”.

These data come from patent US8952183B2, “Inhibitors of sialidase or sialidase-like enzymes” (priority 2009, dated 2015).
